Reference: ChEMBL document CHEMBL1201861, “Genomics of Drug Sensitity in Cancer screening data, Wellcome Trust Sanger Institute”

How the values were obtained:
Test in all cases: cells
Conditions in all cases: Homo sapiens
LXF-289 cell line = format: functional, cell-based
Description: SANGER: Inhibition of human LXF-289 cell growth in a cell viability assay.

NCI-H1155 = format: functional, cell-based;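 note: cell growth inhibition measured by a viability assay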
Description: SANGER: Inhibition of human NCI-H1155 cell growth in a cell viability assay.

NB6 = format: functional, cell-based;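 note: growth inhibition of NB6 cells, read out by a cell viability assay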
Description: SANGER: Inhibition of human NB6 cell growth in a cell viability assay.

TGBC24TKB = format: functional, cell-based;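 note: growth inhibition of human TGBC24TKB cells, read out with a cell viability assay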
Description: SANGER: Inhibition of human TGBC24TKB cell growth in a cell viability assay.

HOP-62 = format: functional, cell-based;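 note: cell growth inhibition determined with a viability assay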
Description: SANGER: Inhibition of human HOP-62 cell growth in a cell viability assay.

TK-10 = format: functional, cell-based;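 note: growth inhibition of TK-10 cells, read out in a cell viability assay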
Description: SANGER: Inhibition of human TK10 cell growth in a cell viability assay.

IA-LM = format: functional, cell-based;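 note: cell viability assay measuring growth inhibition of human IA-LM cells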
Description: SANGER: Inhibition of human IA-LM cell growth in a cell viability assay.

CCRF-CEM = format: functional, cell-based;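 note: inhibition of CCRF-CEM cell growth, measured by a cell viability assay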
Description: SANGER: Inhibition of human CCRF-CEM cell growth in a cell viability assay.

P30-OHK = format: functional, cell-based;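 note: growth inhibition of the P30-OHK cell line, read out with a cell viability assay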
Description: SANGER: Inhibition of human P30-OHK cell growth in a cell viability assay.

MSTO-211H = format: functional, cell-based
Description: SANGER: Inhibition of human MSTO-211H cell growth in a cell viability assay.

KS-1 = format: functional, cell-based;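 note: growth inhibition of KS-1 cells, read out with a cell viability assay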
Description: SANGER: Inhibition of human KS-1 cell growth in a cell viability assay.

DOHH-2 = format: functional, cell-based;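 note: growth inhibition of human DOHH-2 cells, read out with a cell viability assay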
Description: SANGER: Inhibition of human DOHH-2 cell growth in a cell viability assay.

MHH-PREB-1 = format: functional, cell-based;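 note: cell viability assay measuring inhibition of proliferation of human MHH-PREB-1 cells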
Description: SANGER: Inhibition of human MHH-PREB-1 cell growth in a cell viability assay.

KARPAS-299 = format: functional, cell-based
Description: SANGER: Inhibition of human KARPAS-299 cell growth in a cell viability assay.

D-502MG = format: functional, cell-based
Description: SANGER: Inhibition of human D-502MG cell growth in a cell viability assay.

ES5 = format: functional, cell-based;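 note: growth inhibition of human ES5 cells, read out by a cell viability assay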
Description: SANGER: Inhibition of human ES5 cell growth in a cell viability assay.

RPMI-8866 = format: functional, cell-based
Description: SANGER: Inhibition of human RPMI-8866 cell growth in a cell viability assay.

C8166 = format: functional, cell-based;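 note: growth inhibition of human C8166 cells measured by a cell viability assay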
Description: SANGER: Inhibition of human C8166 cell growth in a cell viability assay.

TE-8 = format: functional, cell-based;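 note: growth inhibition of TE-8 cells, measured with a cell viability readout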
Description: SANGER: Inhibition of human TE-8 cell growth in a cell viability assay.

NCI-H69 = format: functional, cell-based;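 note: growth inhibition of the cell line, read out with a cell viability assay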
Description: SANGER: Inhibition of human NCI-H69 cell growth in a cell viability assay.

SF-126 = format: functional, cell-based;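 note: growth inhibition of human SF126 cells, read out with a cell viability assay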
Description: SANGER: Inhibition of human SF126 cell growth in a cell viability assay.

KY821 = format: functional, cell-based;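 note: growth inhibition of human KY821 cells, read out by a cell viability assay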
Description: SANGER: Inhibition of human KY821 cell growth in a cell viability assay.

HuTu80 = format: functional, cell-based, HUTU-80;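 note: growth inhibition of HuTu80 human cells, determined with a cell viability readout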
Description: SANGER: Inhibition of human HUTU-80 cell growth in a cell viability assay.

8-MG-BA = format: functional, cell-based;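 note: growth inhibition of 8-MG-BA cells, read out with a cell viability assay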
Description: SANGER: Inhibition of human 8-MG-BA cell growth in a cell viability assay.

LNCaP-Clone-FGC = format: functional, cell-based
Description: SANGER: Inhibition of human LNCaP-Clone-FGC cell growth in a cell viability assay.

GCIY = format: functional, cell-based;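 note: growth inhibition of the human GCIY cell line, read out by a cell viability assay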
Description: SANGER: Inhibition of human GCIY cell growth in a cell viability assay.

QIMR-WIL = format: functional, cell-based;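 note: growth inhibition of QIMR-WIL cells, read out with a cell viability assay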
Description: SANGER: Inhibition of human QIMR-WIL cell growth in a cell viability assay.

Mo = format: functional, cell-based
Description: SANGER: Inhibition of human Mo-T cell growth in a cell viability assay.

Ramos-2G6-4C10 = format: functional, cell-based;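 note: growth inhibition of the cell line, measured by a cell viability read-out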
Description: SANGER: Inhibition of human Ramos-2G6-4C10 cell growth in a cell viability assay.

MLMA = format: functional, cell-based;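 note: growth inhibition of MLMA cells (human), determined through a cell viability readout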
Description: SANGER: Inhibition of human MLMA cell growth in a cell viability assay.

SK-NEP-1 = format: functional, cell-based;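 note: growth inhibition of human SK-NEP-1 cells, read out by a cell viability assay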
Description: SANGER: Inhibition of human SK-NEP-1 cell growth in a cell viability assay.

KARPAS-45 = format: functional, cell-based;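 note: inhibition of cell line growth, read out through a viability assay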
Description: SANGER: Inhibition of human KARPAS-45 cell growth in a cell viability assay.

NOMO-1 = format: functional, cell-based;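 note: growth inhibition of human NOMO-1 cells measured by a cell viability assay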
Description: SANGER: Inhibition of human NOMO-1 cell growth in a cell viability assay.

SK-LMS-1 = format: functional, cell-based;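 note: growth inhibition of human SK-LMS-1 cells, read out with a cell viability assay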
Description: SANGER: Inhibition of human SK-LMS-1 cell growth in a cell viability assay.

LS-513 = format: functional, cell-based
Description: SANGER: Inhibition of human LS-513 cell growth in a cell viability assay.

KLE = format: functional, cell-based;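 note: growth inhibition of human KLE cells, read out with a cell viability assay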
Description: SANGER: Inhibition of human KLE cell growth in a cell viability assay.

LU-134-A = format: functional, cell-based
Description: SANGER: Inhibition of human LU-134-A cell growth in a cell viability assay.

EKVX = format: functional, cell-based;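 note: growth inhibition of human EKVX cells, read out with a cell viability assay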
Description: SANGER: Inhibition of human EKVX cell growth in a cell viability assay.

Lu-65 = format: functional, cell-based;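 note: growth inhibition of Lu-65 cancer cells, read out by a cell viability assay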
Description: SANGER: Inhibition of human LU-65 cell growth in a cell viability assay.

KINGS-1 = format: functional, cell-based;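 note: cell viability assay measuring suppression of KINGS-1 cell growth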
Description: SANGER: Inhibition of human KINGS-1 cell growth in a cell viability assay.

HC-1 = format: functional, cell-based;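 note: growth inhibition of HC-1 cells measured by a cell viability assay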
Description: SANGER: Inhibition of human HC-1 cell growth in a cell viability assay.

CW-2 = format: functional, cell-based;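 note: growth inhibition of CW-2 cells, read out by a cell viability assay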
Description: SANGER: Inhibition of human CW-2 cell growth in a cell viability assay.

HCC2218 = format: functional, cell-based;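 note: cell viability assay read-out, with IC50 given as the concentration that inhibits growth of the cell line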
Description: SANGER: Inhibition of human HCC2218 cell growth in a cell viability assay.

NCI-H747 = format: functional, cell-based;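 note: growth inhibition of human NCI-H747 cells, read out by a cell viability assay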
Description: SANGER: Inhibition of human NCI-H747 cell growth in a cell viability assay.

EW-1 = format: functional, cell-based;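 note: growth inhibition of the human EW-1 cell line, read out by a cell viability assay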
Description: SANGER: Inhibition of human EW-1 cell growth in a cell viability assay.

HH = format: functional, cell-based
Description: SANGER: Inhibition of human HH cell growth in a cell viability assay.

A704 = format: functional, cell-based;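 note: growth inhibition of human A704 cells, read out with a cell viability assay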
Description: SANGER: Inhibition of human A704 cell growth in a cell viability assay.

OMC-1 = format: functional, cell-based;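 note: growth inhibition of the OMC-1 cell line, measured by a cell viability assay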
Description: SANGER: Inhibition of human OMC-1 cell growth in a cell viability assay.

SW982 = format: functional, cell-based;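 note: growth inhibition of SW982 cells, read out with a cell viability assay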
Description: SANGER: Inhibition of human SW982 cell growth in a cell viability assay.

ONS-76 = format: functional, cell-based;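 note: growth inhibition of human ONS-76 cells, read out with a cell viability assay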
Description: SANGER: Inhibition of human ONS-76 cell growth in a cell viability assay.

SNU-C2B = format: functional, cell-based;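 note: cell viability readout used to measure compound-driven suppression of SNU-C2B cell proliferation, IC50 marking half-maximal growth inhibition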
Description: SANGER: Inhibition of human SNU-C2B cell growth in a cell viability assay.

BB30-HNC = format: functional, cell-based;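 note: growth inhibition of the cultured cell line, read out by a cell viability assay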
Description: SANGER: Inhibition of human BB30-HNC cell growth in a cell viability assay.

NEC8 = format: functional, cell-based;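 note: growth inhibition of human NEC8 cells, read out by a cell viability assay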
Description: SANGER: Inhibition of human NEC8 cell growth in a cell viability assay.

COLO-668 = format: functional, cell-based
Description: SANGER: Inhibition of human COLO-668 cell growth in a cell viability assay.

MHH-NB-11 = format: functional, cell-based;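 note: growth inhibition of human MHH-NB-11 cells, read out by a cell viability assay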
Description: SANGER: Inhibition of human MHH-NB-11 cell growth in a cell viability assay.

KURAMOCHI = format: functional, cell-based;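 note: growth inhibition of KURAMOCHI cells, read out with a cell viability assay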
Description: SANGER: Inhibition of human KURAMOCHI cell growth in a cell viability assay.

KMOE-2 = format: functional, cell-based;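 note: growth inhibition of human KMOE-2 cells, read out with a cell viability assay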
Description: SANGER: Inhibition of human KMOE-2 cell growth in a cell viability assay.

SNU1 = format: functional, cell-based;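 note: growth inhibition of human NCI-SNU-1 cells, measured with a cell viability assay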
Description: SANGER: Inhibition of human NCI-SNU-1 cell growth in a cell viability assay.

LS-1034 = format: functional, cell-based
Description: SANGER: Inhibition of human LS-1034 cell growth in a cell viability assay.

U-87 MG = format: functional, cell-based, U-87MG ATCC;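 note: growth inhibition of the cells measured with a viability assay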
Description: SANGER: Inhibition of human U-87-MG cell growth in a cell viability assay.

HCE-T = format: functional, cell-based
Description: SANGER: Inhibition of human HCE-T cell growth in a cell viability assay.

SW 962 = format: functional, cell-based
Description: SANGER: Inhibition of human SW962 cell growth in a cell viability assay.

NOS-1 = format: functional, cell-based
Description: SANGER: Inhibition of human NOS-1 cell growth in a cell viability assay.

LAN-6 = format: functional, cell-based
Description: SANGER: Inhibition of human LAN-6 cell growth in a cell viability assay.

DJM-1 = format: functional, cell-based
Description: SANGER: Inhibition of human DJM-1 cell growth in a cell viability assay.

Cc1nc(Nc2ncc(C(=O)Nc3c(C)cccc3Cl)s2)cc(N2CCN(CCO)CC2)n1 [DASATINIB]
IC50 (LXF-289 cell line): 39.6 nM | IC50 (NCI-H1155): > 1280 nM | IC50 (NB6): > 1280 nM | IC50 (TGBC24TKB): 47.6 nM | IC50 (HOP-62): 18.3 nM | IC50 (TK-10): 11.7 nM | IC50 (IA-LM): > 1280 nM | IC50 (CCRF-CEM): > 1280 nM | IC50 (P30-OHK): > 1280 nM | IC50 (MSTO-211H): > 1280 nM | IC50 (KS-1): 27.3 nM | IC50 (DOHH-2): 17.2 nM | IC50 (MHH-PREB-1): 745 nM | IC50 (KARPAS-299): > 1280 nM | IC50 (D-502MG): 1230 nM | IC50 (ES5): > 1280 nM | IC50 (RPMI-8866): > 1280 nM | IC50 (C8166): > 1280 nM | IC50 (TE-8): 15.8 nM | IC50 (NCI-H69): > 1280 nM | IC50 (SF-126): 354 nM | IC50 (KY821): > 1280 nM | IC50 (HuTu80): 314 nM | IC50 (8-MG-BA): 155 nM | IC50 (LNCaP-Clone-FGC): > 1280 nM | IC50 (GCIY): 96.6 nM | IC50 (QIMR-WIL): 706 nM | IC50 (Mo): > 1280 nM | IC50 (Ramos-2G6-4C10): > 1280 nM | IC50 (MLMA): 140 nM | IC50 (SK-NEP-1): > 1280 nM | IC50 (KARPAS-45): > 1280 nM | IC50 (NOMO-1): > 1280 nM | IC50 (SK-LMS-1): > 1280 nM | IC50 (LS-513): > 1280 nM | IC50 (KLE): 113 nM | IC50 (LU-134-A): > 1280 nM | IC50 (EKVX): > 1280 nM | IC50 (Lu-65): > 1280 nM | IC50 (KINGS-1): 167 nM | IC50 (HC-1): > 1280 nM | IC50 (CW-2): > 1280 nM | IC50 (HCC2218): > 1280 nM | IC50 (NCI-H747): 83.6 nM | IC50 (EW-1): > 1280 nM | IC50 (HH): > 1280 nM | IC50 (A704): 14.9 nM | IC50 (OMC-1): > 1280 nM | IC50 (SW982): 11.1 nM | IC50 (ONS-76): 430 nM | IC50 (SNU-C2B): > 1280 nM | IC50 (BB30-HNC): 54.4 nM | IC50 (NEC8): > 1280 nM | IC50 (COLO-668): > 1280 nM | IC50 (MHH-NB-11): > 1280 nM | IC50 (KURAMOCHI): 34.9 nM | IC50 (KMOE-2): > 1280 nM | IC50 (SNU1): > 1280 nM | IC50 (LS-1034): > 1280 nM | IC50 (U-87 MG): > 1280 nM | IC50 (HCE-T): > 1280 nM | IC50 (SW 962): 113 nM | IC50 (NOS-1): 6.13 nM | IC50 (LAN-6): > 1280 nM | IC50 (DJM-1): > 1280 nM
